Experimental data as given in US20160168130A1, “HETEROARYL SUBSTITUTED PYRAZOLES” (BAYER PHARMA AKTIENGESELLSCHAFT, priority 2013, published 2016).

Legend:
[1] = target: T1, catalytic domain of human Bub1 (amino acids 704-1085) (Homo sapiens, UniProt O43683); assay: Bub1 kinase assay (TR-FRET); assay type: biochemical; details: 10 μM ATP, 1 μM peptide substrate, median, read-out: Biological Assay 1: Bub1 kinase assay median IC50
T1 construct: catalytic domain of human Bub1 (amino acids 704-1085); His6 (N); made in house; host or cells: Hi5 insect cells
Excerpt: Bub1-inhibitory activities of compounds described in the present invention were quantified using a time-resolved fluorescence energy transfer (TR-FRET) kinase assay which measures phosphorylation of the synthetic peptide Biotin-Ahx-VLLPKKSFAEPG (C-terminus in amide form), purchased from e.g. Biosyntan (Berlin, Germany) by the (recombinant) catalytic domain of human Bub1 (amino acids 704-1085), expressed in Hi5 insect cells with an N-terminal His6-tag and purified by affinity-(Ni-NTA) and size exclusion chromatography.
In a typical assay 11 different concentrations of each compound (0.1 nM, 0.33 nM, 1.1 nM, 3.8 nM, 13 nM, 44 nM, 0.15 μM, 0.51 μM, 1.7 μM, 5.9 μM and 20 μM) were tested in duplicate within the same microtiter plate. To this end, 100-fold concentrated compound solutions (in DMSO) were previously prepared by serial dilution (1:3.4) of 2 mM stocks in a clear low volume 384-well source microtiter plate (Greiner Bio-One, Frickenhausen, Germany), from which 50 nL of compounds were transferred into a black low volume test microtiter plate from the same supplier. Subsequently, 2 μL of Bub1 (the final concentration of Bub1 was adjusted depending on the activity of the enzyme lot in order to be within the linear dynamic range of the assay: typically ˜200 ng/mL were used) in aqueous assay buffer [50 mM Tris/HCl pH 7.5, 10 mM magnesium chloride (MgCl2), 200 mM potassium chloride (KCl), 1.0 mM dithiothreitol (DTT), 0.1 mM sodium ortho-vanadate, 1% (v/v) glycerol, 0.01% (w/v) bovine serum albumine (BSA), 0.005% (v/v) Trition X-100 (Sigma), 1× Complete EDTA-free protease inhibitor mixture (Roche)] were added to the compounds in the test plate and the mixture was incubated for 15 min at 22° C. to allow pre-equilibration of the putative enzyme-inhibitor complexes before the start of the kinase reaction, which was initiated by the addition of 3 μL 1.67-fold concentrated solution (in assay buffer) of adenosine-tri-phosphate (ATP, 10 μM final concentration) and peptide substrate (1 μM final concentration). The resulting mixture (5 μL final volume) was incubated at 22° C. during 60 min., and the reaction was stopped by the addition of 5 μL of an aqueous EDTA-solution (50 mM EDTA, in 100 mM HEPES pH 7.5 and 0.2% (w/v) bovine serum albumin) which also contained the TR-FRET detection reagents (0.2 μM streptavidin-XL665 [Cisbio Bioassays, Codolet, France] and 1 nM anti-phosho-Serine antibody [Merck Millipore, cat. #35-001] and 0.4 nM LANCE EU-W1024 labeled anti-mouse IgG antibody [Perkin-Elmer, product no. AD0077, alternatively a Terbium-cryptate-labeled anti-mouse IgG antibody from Cisbio Bioassays can be used]). The stopped reaction mixture was further incubated 1 h at 22° C. in order to allow the formation of complexes between peptides and detection reagents. Subsequently, the amount of product was evaluated by measurement of the resonance energy transfer from the Eu-chelate-antibody complex recognizing the Phosphoserine residue to the streptavidin-XL665 bound to the biotin moiety of the peptide. To this end, the fluorescence emissions at 620 nm and 665 nm after excitation at 330-350 nm were measured in a TR-FRET plate reader, e.g. a Rubystar or Pherastar (both from BMG Labtechnologies, Offenburg, Germany) or a Viewlux (Perkin-Elmer) and the ratio of the emissions (665 nm/622 nm) was taken as indicator for the amount of phosphorylated substrate. The data were normalised using two sets of (typically 32—) control wells for high—(=enzyme reaction without inhibitor=0% =Minimum inhibition) and low—(=all assay components without enzyme=100%=Maximum inhibition) Bub1 activity. IC50 values were calculated by fitting the normalized inhibition data to a 4-parameter logistic equation (Minimum, Maximum, IC50, Hill; Y=Max+(Min−Max)/(1+(X/IC50)Hill)).

[2] = tested on: HeLa human cervical cancer cell line; assay: Proliferation assay (crystal violet staining); assay type: cell-based; details: 96 h, HeLa cells, 4 days incubation, median, read-out: Biological Assay 2: Proliferation assay (HeLa cell line) median IC50
Method: Cultivated tumor cells (cells were ordered from ATCC) were plated at a density of 3000 cells/well in a 96-well multititer plate in 200 μL of growth medium supplemented 10% fetal calf serum. After 24 hours, the cells of one plate (zero-point plate) were stained with crystal violet (see below), while the medium of the other plates was replaced by fresh culture medium (200 μL), to which the test substances were added in various concentrations (0 μM, as well as in the range of 0.001-10 μM; the final concentration of the solvent dimethyl sulfoxide was 0.5%). The cells were incubated for 4 days in the presence of test substances. Cell proliferation was determined by staining the cells with crystal violet: the cells were fixed by adding […] of an 11% glutaric aldehyde solution for 15 minutes at room temperature. After three washing cycles of the fixed cells with water, the plates were dried at room temperature. The cells were stained by adding 100 μL/measuring point of a 0.1% crystal violet solution (pH 3.0). After three washing cycles of the stained cells with water, the plates were dried at room temperature. The dye was dissolved by adding 100 μL/measuring point of a 10% acetic acid solution. Absorbtion was determined by photometry at a wavelength of 595 nm. The change of cell number, in percent, was calculated by normalization of the measured values to the absorbtion values of the zero-point plate(=0%) and the absorbtion of the untreated (0 μm) cells(=100%). The IC50 values were determined by means of a 4 parameter fit.

T1 sequence (O43683 704-1085): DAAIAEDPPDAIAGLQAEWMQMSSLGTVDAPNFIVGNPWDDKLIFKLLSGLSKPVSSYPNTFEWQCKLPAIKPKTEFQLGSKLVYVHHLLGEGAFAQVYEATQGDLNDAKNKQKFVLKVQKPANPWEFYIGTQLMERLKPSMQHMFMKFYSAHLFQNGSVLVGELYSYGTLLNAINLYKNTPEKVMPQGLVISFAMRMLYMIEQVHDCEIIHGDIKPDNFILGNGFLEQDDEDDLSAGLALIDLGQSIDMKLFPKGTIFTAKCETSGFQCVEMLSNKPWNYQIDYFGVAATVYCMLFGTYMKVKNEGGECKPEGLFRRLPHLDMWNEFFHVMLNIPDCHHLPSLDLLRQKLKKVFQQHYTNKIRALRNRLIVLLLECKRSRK

SMILES	IC50 [1] [nM]	IC50 [2] [nM]
CCOc1cc(F)c(Cn2nc(-c3ncc(OC)c(Nc4ccncn4)n3)c(C)c2C2CC2)c(F)c1 [Example 2-1-2, 2-[5-cyclopropyl-1-(4-ethoxy-2,6-difluorobenzyl)-4-methyl-1H-pyrazol-3-yl]-5-methoxy-N-(pyrimidin-4-yl)pyrimidin-4-amine]	16	3500
CCOc1cc(F)c(Cn2nc(-c3nccc(Nc4ccncn4)n3)c(Cl)c2C2CC2)c(F)c1 [Example 2-1-1, 2-[4-chloro-5-cyclopropyl-1-(4-ethoxy-2,6-difluorobenzyl)-1H-pyrazol-3-yl]-N-(pyrimidin-4-yl)pyrimidin-4-amine]	5	> 10000
CCOc1cc(F)c(Cn2cc(Cl)c(-c3ncc(OC)c(Nc4ccncn4)n3)n2)c(F)c1 [Example 2-1-6, 2-[4-chloro-1-(4-ethoxy-2,6-difluorobenzyl)-1H-pyrazol-3-yl]-5-methoxy-N-(pyrimidin-4-yl)pyrimidin-4-amine]	100	> 10000
CCOc1cc(F)c(Cn2nc(-c3ncc(OC)c(Nc4ccnnc4)n3)c(C)c2C2CC2)c(F)c1 [Example 2-1-4, N-{2-[5-cyclopropyl-1-(4-ethoxy-2,6-difluorobenzyl)-4-methyl-1H-pyrazol-3-yl]-5-methoxy-pyrimidin-4-yl}pyridazin-4-amine]	52	> 10000
CCOc1cc(F)c(Cn2cc(C)c(-c3ncc(OC)c(Nc4ccncn4)n3)n2)c(F)c1 [Example 2-1-5, 2-[1-(4-ethoxy-2,6-difluorobenzyl)-4-methyl-1H-pyrazol-3-yl]-5-methoxy-N-(pyrimidin-4-yl)pyrimidin-4-amine]	85	> 10000
COc1cnc(-c2cc(OC)n(Cc3ccccc3F)n2)nc1Nc1ccncn1 [Example 2-1-7, 2-[1-(2-fluorobenzyl)-5-methoxy-1H-pyrazol-3-yl]-5-methoxy-N-(pyrimidin-4-yl)pyrimidin-4-amine]	3600	> 10000
CCOc1cc(F)c(Cn2nc(-c3nccc(Nc4ccncn4)n3)c(C)c2C2CC2)c(F)c1 [Example 2-1-3, 2-[5-cyclopropyl-1-(4-ethoxy-2,6-difluorobenzyl)-4-methyl-1H-pyrazol-3-yl]-N-(pyrimidin-4-yl)pyrimidin-4-amine]	17	> 10000
